Measurements: the NIST ThermoML archive (doi:10.1021/je7006692)
Numbers after ± are expanded uncertainties.

Assay: relative permittivity at zero frequency (dimensionless)
Conditions: Liquid

Cc1ccccc1 [toluene]
Reentrant cavity resonator
Conditions | relative permittivity at zero frequency
290.63 K, 100 kPa | 2.40453 ± 0.006
290.65 K, 100 kPa | 2.40448 ± 0.006
290.69 K, 2170 kPa | 2.41272 ± 0.00061
290.77 K, 4240 kPa | 2.41409 ± 0.00061
290.81 K, 6310 kPa | 2.41721 ± 0.00061
290.83 K, 8370 kPa | 2.4202 ± 0.00061
290.87 K, 12510 kPa | 2.42629 ± 0.00061
290.88 K, 16100 kPa | 2.43136 ± 0.00061
290.9 K, 16650 kPa | 2.4322 ± 0.00061
291.15 K, 100 kPa | 2.3983 ± 0.006
292.65 K, 100 kPa | 2.40346 ± 0.006
294.8 K, 100 kPa | 2.39092 ± 0.006
310.68 K, 100 kPa | 2.35675 ± 0.006
310.79 K, 100 kPa | 2.35646 ± 0.006
311.94 K, 100 kPa | 2.35363 ± 0.006
314.47 K, 100 kPa | 2.3479 ± 0.006
315.68 K, 100 kPa | 2.34035 ± 0.006
315.77 K, 100 kPa | 2.33999 ± 0.006
315.78 K, 1140 kPa | 2.34185 ± 0.00061
315.78 K, 8370 kPa | 2.35428 ± 0.00061
315.79 K, 2170 kPa | 2.34366 ± 0.00061
315.79 K, 3200 kPa | 2.34545 ± 0.00061
315.79 K, 4240 kPa | 2.34729 ± 0.00061
315.79 K, 6310 kPa | 2.35078 ± 0.00061
315.79 K, 12510 kPa | 2.36095 ± 0.00061
315.79 K, 16650 kPa | 2.3674 ± 0.00061
315.79 K, 19410 kPa | 2.37152 ± 0.00061
320.64 K, 100 kPa | 2.32926 ± 0.006
320.66 K, 1140 kPa | 2.33114 ± 0.00061
324.52 K, 100 kPa | 2.32053 ± 0.006
324.53 K, 1140 kPa | 2.32241 ± 0.00061
324.54 K, 2170 kPa | 2.32435 ± 0.00061
324.54 K, 3200 kPa | 2.32625 ± 0.00061
324.54 K, 4240 kPa | 2.32811 ± 0.00061
324.54 K, 6310 kPa | 2.33179 ± 0.00061
324.58 K, 8370 kPa | 2.33528 ± 0.00061
324.61 K, 12510 kPa | 2.34222 ± 0.00061
324.62 K, 16650 kPa | 2.34897 ± 0.00061
339.31 K, 100 kPa | 2.28784 ± 0.006
339.35 K, 2170 kPa | 2.2919 ± 0.00061
339.38 K, 4240 kPa | 2.29596 ± 0.00061
339.38 K, 6310 kPa | 2.29992 ± 0.00061
339.39 K, 8370 kPa | 2.3038 ± 0.00061
339.41 K, 12510 kPa | 2.31127 ± 0.00061
339.41 K, 16650 kPa | 2.31844 ± 0.00061
357.44 K, 6310 kPa | 2.26156 ± 0.00061
357.45 K, 2170 kPa | 2.25261 ± 0.00061
357.45 K, 4240 kPa | 2.25717 ± 0.00061
357.46 K, 100 kPa | 2.24793 ± 0.006
357.52 K, 8370 kPa | 2.26578 ± 0.00061
357.54 K, 12510 kPa | 2.274 ± 0.00061
357.55 K, 16650 kPa | 2.28185 ± 0.00061
390.53 K, 170 kPa | 2.17781 ± 0.00064
390.53 K, 2170 kPa | 2.18342 ± 0.00061
390.59 K, 100 kPa | 2.17698 ± 0.006
390.59 K, 4240 kPa | 2.18899 ± 0.00061
390.61 K, 6310 kPa | 2.19431 ± 0.00061
390.63 K, 8370 kPa | 2.19969 ± 0.00061
390.65 K, 12510 kPa | 2.20969 ± 0.00061
390.68 K, 16650 kPa | 2.21925 ± 0.00061
405.84 K, 2170 kPa | 2.14947 ± 0.00061
406.3 K, 6310 kPa | 2.16081 ± 0.00061
406.32 K, 4240 kPa | 2.15467 ± 0.00061
406.37 K, 8370 kPa | 2.16653 ± 0.00061
406.54 K, 12510 kPa | 2.17721 ± 0.00061
406.64 K, 16650 kPa | 2.18731 ± 0.00061

Conditions | relative permittivity at zero frequency
297.37 K, 34905 kPa | 2.443 ± 0.004
297.37 K, 41879 kPa | 2.4564 ± 0.004
297.38 K, 27906 kPa | 2.4276 ± 0.004
297.39 K, 20942 kPa | 2.4127 ± 0.004
297.4 K, 13927 kPa | 2.3962 ± 0.004
297.41 K, 6919 kPa | 2.3777 ± 0.004
